Reference: patent US20240189311A1, “Combination Therapy of Obicetrapib and Ezetimibe for Use in Statin Intolerant Patients Suffering from Hyperlipidemia or Mixed Dyslipidaemia” (NEWAMSTERDAM PHARMA B.V., priority 2021, published 2024)
Like-named read-outs stand apart in the source and are kept apart here.

Tests used:
[1] = cited from earlier work; for Phase III clinical trial outcome (in words): anacetrapib: 30.000 patient REVEAL trial
[2] = test system: low-density lipoprotein cholesterol (LDL-C); assay: Phase 2 study of obicetrapib and ezetimibe in mild dyslipidaemia: LDL-C by Friedewald formula; type: in vivo, human
Excerpt: (§1) Study drugs will be administered by the participant orally and once daily on Days 1 through 57. Study drugs should be administered at approximately the same time each morning, with food. On days with visits scheduled, study drugs should be administered with food following all fasted blood samples. If a participant forgets to take study drug on a given day, they should take the next dose as normal and should not take a double dose to make up for the forgotten dose.
(§2) Up to 2 weeks after the Screening Visit, participants will return to the site on Day 1 (Visit 2) to be randomized and begin treatment. Approximately 100 eligible participants (25 participants per treatment group) will be randomized in a 1:1:1:1 ratio to 1 of the following treatment groups: • Combination therapy: 5 mg obicetrapib+10 mg ezetimibe; • Obicetrapib monotherapy: 5 mg obicetrapib+placebo ezetimibe; • Ezetimibe monotherapy: placebo obicetrapib+10 mg ezetimibe; or • Placebo: placebo obicetrapib+placebo ezetimibe.
LDL-C level was collected using the following 2 approaches: • 1. At each scheduled visit, LDL-C level was calculated using the Friedewald formula; and • 2. In addition, at baseline (Day 1) and at the end of the 8-week Treatment Period (Day 57), LDL-C was measured for all participants by preparative ultracentrifugation (PUC). Primary Efficacy Endpoint Primary analysis
The primary efficacy analysis of the percent change from Day 1 to Day 57 in LDL-C was performed using a mixed model for repeated measures (MMRM) approach. The analysis included fixed effects for treatment, visit, and treatment-by-visit interaction, along with a covariate of the baseline value as a continuous covariate. Randomization was stratified by categories of LDL-C value (<3.5 mmol/L [<135 mg/dL] or >3.5 mmol/L [≥135 mg/dL]) only to ensure similar distribution of LDL-C across all treatment groups; however, the MMRM model included the original scale of the LDL-C value as a continuous covariate. The Restricted Maximum Likelihood estimation approach was used with an unstructured covariance matrix. The least squares (LS) means, standard errors, and 2-sided 95% confidence intervals (CIs) for each treatment group, for the pairwise comparisons of the combination therapy, obicetrapib monotherapy, and ezetimibe monotherapy to placebo, and for the pairwise comparisons of combination therapy and obicetrapib monotherapy versus ezetimibe monotherapy are provided. The treatment comparison was performed using a 2-sided test at the α=0.05 level of significance.
Similar MMRM models were used for the exploratory efficacy endpoints. The proportion of participants at Day 57 that achieved LDL-C<2.6 mmol/L (<100 mg/dL), LDL-C<1.8 mmol/L (<70 mg/dL), and LDL-C<1.3 mmol/L (<50 mg/dL) were examined through Logistic Regression Models for binary variables with covariates of the treatment groups and the baseline variable.
This study was a placebo-controlled, double-blind, randomized Phase 2 study in participants with mild dyslipidemia to evaluate the efficacy, safety, and tolerability of obicetrapib and ezetimibe combination therapy. The primary efficacy endpoint was percent change from Day 1 to Day 57 in LDL-C for the obicetrapib 5 mg+ezetimibe 10 mg group compared to the placebo group.

apolipoprotein B (ApoB) = assay: Phase 2 study of obicetrapib and ezetimibe in mild dyslipidaemia: ApoB; type: in vivo, human; settings: mITT population, oral once daily
Excerpt: as §1, §2
Similar MMRM models were developed to examine the percent change from Day 1 to Day 57 in LDL-C (for other pairwise treatment group comparisons beside the analysis specified for the primary efficacy endpoint, using the Friedewald formula) or ApoB. In order to maintain the overall Type 1 error rate, the secondary efficacy endpoints were tested sequentially at the 0.05 significance level according to the pre-specified order of hierarchy. This applied to the following analyses: • Percent change from Day 1 to Day 57 in LDL-C for the obicetrapib monotherapy group compared to the placebo group; • Percent change from Day 1 to Day 57 in ApoB for the combination therapy group compared to the placebo group; • Percent change from Day 1 to Day 57 in ApoB for the obicetrapib monotherapy group compared to the placebo group; • Percent change from Day 1 to Day 57 in LDL-C for combination therapy group compared to the ezetimibe monotherapy group; • Percent change from Day 1 to Day 57 in LDL-C for the obicetrapib monotherapy group compared to the ezetimibe monotherapy group; • Percent change from Day 1 to Day 57 in LDL-C, for the ezetimibe monotherapy group compared to the placebo group; and • Percent change from Day 1 to Day 57 in ApoB for the combination therapy group compared to the ezetimibe monotherapy group.

[3] = Phase 2 study: safety and tolerability (adverse events); type: in vivo, human
Excerpt: The Safety Population included all participants who received at least 1 dose of any study drug. Treatment classification was based on the actual treatment received. The Safety Population was the primary population used for the safety analyses.
The Safety Population was the primary population for the safety analyses. All safety endpoints are summarized descriptively. No statistical inference was applied to the safety endpoints.
AEs were categorized by primary system organ class (SOC) and preferred term (PT) as coded using the Medical Dictionary for Regulatory Activities (version 23.0) category designations. Summaries of AEs, including the count and percentage of participants who experienced an AE, are provided.
An overview of treatment-emergent adverse events (TEAEs) is provided, including counts and percentages of participants (and event counts).
Listings are presented specifically for TEAEs, treatment-emergent serious adverse events (TESAEs), and TEAEs leading to discontinuation of study drug.

LDL-C = settings: cited from earlier work
HDL-C = settings: cited from earlier work
[4] = mITT population, mild dyslipidaemia, oral once daily, Day 57
[5] = mITT population, oral once daily, baseline to Day 57
[6] = torcetrapib dosed at 60 mg, Phase III clinical trials

## COc1cc(F)c(C(C)C)cc1-c1ccc(C(F)(F)F)cc1CN1C(=O)O[C@H](c2cc(C(F)(F)F)cc(C(F)(F)F)c2)[C@@H]1C [anacetrapib]
[1]
  Phase III clinical trial outcome (in words): reduced major cardiovascular events (MACE)

## Cc1cc(C)c2c(c1)[C@@H](N(Cc1cc(C(F)(F)F)cc(C(F)(F)F)c1)c1nnn(C)n1)CCCN2C[C@H]1CC[C@H](C(=O)O)CC1 [Evacetrapib]
[1]
  Phase III clinical trial outcome (in words): failed to pass a futility interim analysis

## O=C1[C@H](CC[C@H](O)c2ccc(F)cc2)[C@@H](c2ccc(O)cc2)N1c1ccc(F)cc1 [Ezetimibe 10 mg, (3R,4S)-1-(4-fluorophenyl)-3-[(3 S)-3-(4-fluorophenyl)-3-hydroxypropyl]-4-(4-hydroxyphenyl)azetidin-2-one]
[2]; Day 57
  Number of participants that achieved LDL-C<70 mg/dL by Friedewald formula: 1 participants
  Number of participants that achieved LDL-C<100 mg/dL by Friedewald formula: 8 participants
  Percentage of participants that achieved LDL-C<70 mg/dL by Friedewald formula: 3.6%
  Percentage of participants that achieved LDL-C<100 mg/dL by Friedewald formula: 28.6%
[2]; [4]
  LDL-C by Friedewald formula at Day 57, mean: 109.1 mg/dL
  LDL-C by Friedewald formula at Day 57, median: 109.0 mg/dL
[2]; [5]
  Change from baseline to Day 57 in LDL-C by Friedewald formula, mean: -18.0 mg/dL
  Change from baseline to Day 57 in LDL-C by Friedewald formula, median: -19.0 mg/dL
  Percent change from baseline to Day 57 in LDL-C by Friedewald formula, mean: −12.69%
  Percent change from baseline to Day 57 in LDL-C by Friedewald formula, median: −14.80%
Apolipoprotein B (ApoB); mild dyslipidaemia, Day 57
  ApoB at Day 57, mean: 94.8 mg/dL
  ApoB at Day 57, median: 94.0 mg/dL
Apolipoprotein B (ApoB); baseline to Day 57
  Change from baseline to Day 57 in ApoB, mean: -9.5 mg/dL
  Change from baseline to Day 57 in ApoB, median: -8.0 mg/dL
  Percent change from baseline to Day 57 in ApoB, mean: −8.78%
  Percent change from baseline to Day 57 in ApoB, median: −8.90%
[3]; Safety Population
  Participants who experienced at least 1 TEAE, number: 8 participants
  Participants who experienced at least 1 TEAE, percentage: 28.6%
  Participants who experienced at least 1 study drug-related TEAE, number: 3 participants
  Participants who experienced at least 1 study drug-related TEAE, percentage: 10.7%
  Participants with a TEAE with a maximum severity of moderate, number: 4 participants
  Participants with a TEAE with a maximum severity of moderate, percentage: 14.3%
  Participants with at least 1 TEAE that led to discontinuation of the study drug, number: 1 participants
  Participants with at least 1 TEAE that led to discontinuation of the study drug, percentage: 3.6%
[3]; hyperventilation and multiple fractures, both rated not related to the study drug
  Participants who experienced a TESAE / SAE, number: Two
[3]; percentage of participants overall
  Participants who experienced a TESAE, percentage of participants overall: 1.8%
[3]; severe TEAE of multiple fractures
  Participants who experienced a severe TEAE, number: One
[3]; severe TEAE of multiple fractures, percentage of all participants
  Participants who experienced a severe TEAE, percentage of all participants: 0.9%
LDL-C; ezetimibe mono-therapy, patients with hypercholesterolemia
  Reduction of LDL-C levels when compared to placebo: less than 20%

## CCOC(=O)N1c2ccc(C(F)(F)F)cc2[C@@H](N(Cc2cc(C(F)(F)F)cc(C(F)(F)F)c2)C(=O)OC)C[C@H]1CC [Torcetrapib]
LDL-C; [6]
  Decrease of LDL-C: 25%
HDL-C; [6]
  Increase of HDL-C: 72%
[1]; torcetrapib, Phase III clinical trials
  Safety concerns in clinical development (in words): unexpected increase in cardiovascular events and death

## CCC(CC)CC1(C(=O)Nc2ccccc2SC(=O)C(C)C)CCCCC1 [Dalcetrapib]
LDL-C; dalcetrapib clinical trials
  Effects on LDL-C concentrations (in words): minimal effects
HDL-C; dalcetrapib clinical trials
  Increase of HDL-C: 30-40%
